Reference: patent US7138361B2, “Herbicidal heterocycles” (E. I. du Pont de Nemours and Company, priority 2000, dated 2006)

Assays:
Assay type in all cases: in vivo
[1] = test system: Surinam grass (Brachiaria decumbens); assay: Test B postemergence; settings: 13 to 15 days
Source text: (§1) Seeds selected from barnyardgrass (Echinochloa crus-galli), Surinam grass (Brachiaria decumbens), cocklebur (Xanthium strumarium), corn (Zea mays), crabgrass (Digitaria sanguinalis), giant foxtail (Setaria faberii), lambsquarters (Chenopodium album), morning glory (Ipomoea hederacea), pigweed (Amaranthus retroflexus), rice (Oryza saliva) and velvetleaf (Abutilon theophrasti) were planted and treated preemergence with test chemicals formulated in a non-phytotoxic solvent mixture which included a surfactant.
(§2) At the same time, plants selected from these crop and weed species and also blackgrass (Alopecurus myosuroides), wheat (Triticum aestivum) and wild oat (Avena fatua) were treated with postemergence applications of test chemicals formulated in the same manner. Plants ranged in height from 2 to 18 cm (1- to 4-leaf stage) for postemergence treatments. Plant species in the flooded paddy test consisted of rice (Oryza saliva), smallflower flatsedge (Cyperus difformis), duck salad (Heteranthera limosa) and barnyardgrass (Echinochloa crus-galli) grown to the 2-leaf stage for testing. Treated plants and controls were maintained in a greenhouse for 13 to 15 days, after which time all species were compared to controls and visually evaluated. Plant response ratings, summarized in Table B, are based on a scale of 0 to 100 where 0 is no effect and 100 is complete control. A dash (-) response means no test result.

[2] = test system: barnyardgrass (Echinochloa crus-galli); assay: Test B postemergence; settings: 13 to 15 days
Source text: as §1, §2

[3] = test system: blackgrass (Alopecurus myosuroides); assay: Test B postemergence; settings: 13 to 15 days
Source text: as §1, §2

corn (Zea mays) [4] = assay: Test B postemergence; settings: 13 to 15 days
Source text: as §1, §2

[5] = test system: crabgrass (Digitaria sanguinalis); assay: Test B postemergence; settings: 13 to 15 days
Source text: as §1, §2

[6] = test system: giant foxtail (Setaria faberii); assay: Test B postemergence; settings: 13 to 15 days
Source text: as §1, §2

[7] = test system: lambsquarters (Chenopodium album); assay: Test B postemergence; settings: Rate 500 g/ha, scale 0 to 100, 0 is no effect, 100 is complete control, 13 to 15 days
Source text: as §1, §2

[8] = test system: morning glory (Ipomoea hederacea); assay: Test B postemergence; settings: Rate 500 g/ha, scale 0 to 100, 0 is no effect, 100 is complete control, 13 to 15 days
Source text: as §1, §2

[9] = test system: pigweed (Amaranthus retroflexus); assay: Test B postemergence; settings: Rate 500 g/ha, scale 0 to 100, 0 is no effect, 100 is complete control, 13 to 15 days
Source text: as §1, §2

[10] = test system: velvetleaf (Abutilon theophrasti); assay: Test B postemergence; settings: Rate 500 g/ha, scale 0 to 100, 0 is no effect, 100 is complete control, 13 to 15 days
Source text: as §1, §2

[11] = test system: wheat (Triticum aestivum); assay: Test B postemergence; settings: Rate 500 g/ha, scale 0 to 100, 0 is no effect, 100 is complete control, 13 to 15 days
Source text: as §1, §2

wild oat (Avena fatua) = assay: Test B postemergence; settings: Rate 500 g/ha, scale 0 to 100, 0 is no effect, 100 is complete control, 13 to 15 days
Source text: as §1, §2

[12] = test system: Surinam grass (Brachiaria decumbens); assay: Test B preemergence
Source text: as §1, §2

[13] = test system: barnyardgrass (Echinochloa crus-galli); assay: Test B preemergence
Source text: as §1, §2

[14] = test system: cocklebur (Xanthium strumarium); assay: Test B preemergence
Source text: as §1, §2

corn (Zea mays) [15] = assay: Test B preemergence
Source text: as §1, §2

[16] = test system: crabgrass (Digitaria sanguinalis); assay: Test B preemergence
Source text: as §1, §2

[17] = test system: giant foxtail (Setaria faberii); assay: Test B preemergence
Source text: as §1, §2

[18] = test system: lambsquarters (Chenopodium album); assay: Test B preemergence
Source text: as §1, §2

[19] = test system: morning glory (Ipomoea hederacea); assay: Test B preemergence
Source text: as §1, §2

[20] = test system: pigweed (Amaranthus retroflexus); assay: Test B preemergence
Source text: as §1, §2

rice (Oryza saliva) [21] = assay: Test B preemergence
Source text: as §1, §2

[22] = test system: velvetleaf (Abutilon theophrasti); assay: Test B preemergence
Source text: as §1, §2

[23] = test system: barnyardgrass (Echinochloa crus-galli); assay: Test C flooded paddy test; settings: for Barnyardgrass plant response rating: Flooded Paddy, scale 0 to 100, 0 no effect, 100 complete control; for Plant response rating, Barnyardgrass: flooded paddy test, scale 0 to 100 (0 no effect, 100 complete control)
Protocol: (§3) At the same time, plants selected from these crop and weed species and also winter barley (Hordeum vulgare), blackgrass (Alopecurus myosuroides), canary grass (Phalaris minor), chickweed (Stellaria media), downy brome (Bromus tectorum), green foxtail (Setaria viridis), Italian ryegrass (Lolium multiflorum), wheat (Triticum aestivum), wild oat (Avena fatua) and windgrass (Apera spica-venti) were treated with postemergence applications of some of the test chemicals formulated in the same manner. Plants ranged in height from 2 to 18 cm (1- to 4-leaf stage) for postemergence treatments. Plant species in the flooded paddy test consisted of rice (Oryza saliva), smallflower flatsedge (Cyperus difformis), duck salad (Heteranthera limosa) and barnyardgrass (Echinochloa crus-galli) grown to the 2-leaf stage for testing. Treated plants and controls were maintained in a greenhouse for 12 to 14 days, after which time all species were compared to controls and visually evaluated. Plant response ratings, summarized in Table C, are based on a scale of 0 to 100 where 0 is no effect and 100 is complete control. A dash (-) response means no test result.

[24] = test system: duck salad (Heteranthera limosa); assay: Test C flooded paddy test; settings: for Ducksalad plant response rating: Flooded Paddy, scale 0 to 100, 0 no effect, 100 complete control; for Plant response rating, Ducksalad: flooded paddy test, scale 0 to 100 (0 no effect, 100 complete control)
Protocol: as §3

rice (Oryza saliva) [25] = assay: Test C flooded paddy test; settings: for Rice plant response rating: Flooded Paddy, scale 0 to 100, 0 no effect, 100 complete control; for Plant response rating, Rice: flooded paddy test, scale 0 to 100 (0 no effect, 100 complete control)
Protocol: as §3

[26] = test system: smallflower flatsedge (Cyperus difformis); assay: Test C flooded paddy test; settings: for Flatsedge plant response rating: Flooded Paddy, scale 0 to 100, 0 no effect, 100 complete control; for Plant response rating, Flatsedge: flooded paddy test, scale 0 to 100 (0 no effect, 100 complete control)
Protocol: as §3

[27] = Rate 125 g/ha, scale 0 (no effect) to 100 (complete control)
[28] = Rate 500 g/ha, scale 0 to 100, 0 is no effect, 100 is complete control
[29] = Preemergence, Rate 500 g/ha, scale 0 to 100, 0 no effect, 100 complete control
[30] = preemergence, Rate 125 g/ha, scale of 0 to 100 where 0 is no effect and 100 is complete control, 13 to 15 days

## CCCCC(C)c1ccn(C2OCN(c3cccc(C(F)(F)F)c3)C2=O)n1 (stereo not shown) [Compound 98]
[1]; [27]
  Plant response rating, Surinam grass: 0
[1]; [28]
  Plant response rating, Surinam grass: 0
[2]; [27]
  Plant response rating, Barnyardgrass: 0
[2]; [28]
  Plant response rating, Barnyardgrass: 0
[3]; [27]
  Plant response rating, Blackgrass: 0
[3]; [28]
  Plant response rating, Blackgrass: 0
Corn (Zea mays) [4]; [27]
  Plant response rating, Corn: 0
Corn (Zea mays) [4]; [28]
  Plant response rating, Corn: 0
[5]; [27]
  Plant response rating, Crabgrass: 0
[5]; [28]
  Plant response rating, Crabgrass: 20
[6]; [27]
  Plant response rating, Foxtail, Giant: 0
[6]; [28]
  Plant response rating, Foxtail, Giant: 20
[7]
  Plant response rating, Lambsquarters: 80
[8]
  Plant response rating, Morningglory: 0
[9]
  Plant response rating, Pigweed: 100
[10]
  Plant response rating, Velvetleaf: 20
[11]
  Plant response rating, Wheat: 0
Wild oat (Avena fatua)
  Plant response rating, Wild Oat: 0
[12]; [29]
  Plant response rating, Surinam grass: 0
[12]; [30]
  Plant response rating, Surinam grass: 0
[13]; [29]
  Plant response rating, Barnyardgrass: 90
[13]; [30]
  Plant response rating, Barnyardgrass: 0
[14]; [29]
  Plant response rating, Cocklebur: 0
[14]; [30]
  Plant response rating, Cocklebur: 0
Corn (Zea mays) [15]; [29]
  Plant response rating, Corn: 0
Corn (Zea mays) [15]; [30]
  Plant response rating, Corn: 0
[16]; [29]
  Plant response rating, Crabgrass: 100
[16]; [30]
  Plant response rating, Crabgrass: 0
[17]; [29]
  Plant response rating, Foxtail, Giant: 90
[17]; [30]
  Plant response rating, Foxtail, Giant: 0
[18]; [29]
  Plant response rating, Lambsquarters: 100
[18]; [30]
  Plant response rating, Lambsquarters: 60
[19]; [29]
  Plant response rating, Morningglory: 0
[19]; [30]
  Plant response rating, Morningglory: 0
[20]; [29]
  Plant response rating, Pigweed: 40
[20]; [30]
  Plant response rating, Pigweed: 0
Rice (Oryza saliva) [21]; [29]
  Plant response rating, Rice: 30
Rice (Oryza saliva) [21]; [30]
  Plant response rating, Rice: 0
[22]; [29]
  Plant response rating, Velvetleaf: 0
[22]; [30]
  Plant response rating, Velvetleaf: 0
[23]; Rate 250 g/ha
  Barnyardgrass plant response rating: 30
[23]; Rate 500 g/ha
  Barnyardgrass plant response rating: 50
[23]; Rate 62 g/ha
  Plant response rating, Barnyardgrass: 0
[23]; Rate 125 g/ha
  Plant response rating, Barnyardgrass: 0
[24]; Rate 250 g/ha
  Ducksalad plant response rating: 0
[24]; Rate 500 g/ha
  Ducksalad plant response rating: 0
[24]; Rate 62 g/ha
  Plant response rating, Ducksalad: 0
[24]; Rate 125 g/ha
  Plant response rating, Ducksalad: 0
Rice (Oryza saliva) [25]; Rate 250 g/ha
  Rice plant response rating: 50
Rice (Oryza saliva) [25]; Rate 500 g/ha
  Rice plant response rating: 50
Rice (Oryza saliva) [25]; Rate 62 g/ha
  Plant response rating, Rice: 0
Rice (Oryza saliva) [25]; Rate 125 g/ha
  Plant response rating, Rice: 50
[26]; Rate 250 g/ha
  Flatsedge plant response rating: 90
[26]; Rate 500 g/ha
  Flatsedge plant response rating: 90
[26]; Rate 62 g/ha
  Plant response rating, Flatsedge: 60
[26]; Rate 125 g/ha
  Plant response rating, Flatsedge: 80

## CC(C)(C)c1ccn(C2CCN(c3cccc(S(C)(=O)=O)c3)C2=O)n1 (stereo not shown) [Compound 102]
[1]; [27]
  Plant response rating, Surinam grass: 0
[1]; [28]
  Plant response rating, Surinam grass: 0
[2]; [27]
  Plant response rating, Barnyardgrass: 0
[2]; [28]
  Plant response rating, Barnyardgrass: 0
[3]; [27]
  Plant response rating, Blackgrass: 0
[3]; [28]
  Plant response rating, Blackgrass: 0
Corn (Zea mays) [4]; [27]
  Plant response rating, Corn: 0
Corn (Zea mays) [4]; [28]
  Plant response rating, Corn: 0
[5]; [27]
  Plant response rating, Crabgrass: 0
[5]; [28]
  Plant response rating, Crabgrass: 0
[6]; [27]
  Plant response rating, Foxtail, Giant: 0
[6]; [28]
  Plant response rating, Foxtail, Giant: 0
[7]
  Plant response rating, Lambsquarters: 0
[8]
  Plant response rating, Morningglory: 0
[9]
  Plant response rating, Pigweed: 0
[10]
  Plant response rating, Velvetleaf: 0
[11]
  Plant response rating, Wheat: 0
Wild oat (Avena fatua)
  Plant response rating, Wild Oat: 0
[12]; [29]
  Plant response rating, Surinam grass: 0
[12]; [30]
  Plant response rating, Surinam grass: 0
[13]; [29]
  Plant response rating, Barnyardgrass: 0
[13]; [30]
  Plant response rating, Barnyardgrass: 0
[14]; [29]
  Plant response rating, Cocklebur: 0
[14]; [30]
  Plant response rating, Cocklebur: 0
Corn (Zea mays) [15]; [29]
  Plant response rating, Corn: 0
Corn (Zea mays) [15]; [30]
  Plant response rating, Corn: 0
[16]; [29]
  Plant response rating, Crabgrass: 90
[16]; [30]
  Plant response rating, Crabgrass: 0
[17]; [29]
  Plant response rating, Foxtail, Giant: 0
[17]; [30]
  Plant response rating, Foxtail, Giant: 0
[18]; [29]
  Plant response rating, Lambsquarters: 0
[18]; [30]
  Plant response rating, Lambsquarters: 0
[19]; [29]
  Plant response rating, Morningglory: 0
[19]; [30]
  Plant response rating, Morningglory: 0
[20]; [29]
  Plant response rating, Pigweed: 0
[20]; [30]
  Plant response rating, Pigweed: 0
Rice (Oryza saliva) [21]; [29]
  Plant response rating, Rice: 0
Rice (Oryza saliva) [21]; [30]
  Plant response rating, Rice: 0
[22]; [29]
  Plant response rating, Velvetleaf: 0
[22]; [30]
  Plant response rating, Velvetleaf: 0
[23]; Rate 250 g/ha
  Barnyardgrass plant response rating: 0
[23]; Rate 500 g/ha
  Barnyardgrass plant response rating: 0
[23]; Rate 62 g/ha
  Plant response rating, Barnyardgrass: 0
[23]; Rate 125 g/ha
  Plant response rating, Barnyardgrass: 0
[24]; Rate 250 g/ha
  Ducksalad plant response rating: 0
[24]; Rate 500 g/ha
  Ducksalad plant response rating: 0
[24]; Rate 62 g/ha
  Plant response rating, Ducksalad: 0
[24]; Rate 125 g/ha
  Plant response rating, Ducksalad: 0
Rice (Oryza saliva) [25]; Rate 250 g/ha
  Rice plant response rating: 0
Rice (Oryza saliva) [25]; Rate 500 g/ha
  Rice plant response rating: 0
Rice (Oryza saliva) [25]; Rate 62 g/ha
  Plant response rating, Rice: 0
Rice (Oryza saliva) [25]; Rate 125 g/ha
  Plant response rating, Rice: 0
[26]; Rate 250 g/ha
  Flatsedge plant response rating: 30
[26]; Rate 500 g/ha
  Flatsedge plant response rating: 60
[26]; Rate 62 g/ha
  Plant response rating, Flatsedge: 0
[26]; Rate 125 g/ha
  Plant response rating, Flatsedge: 30
